Test results taken from patent publication US20090099240A1, “METHODS FOR TREATING ENERGY METABOLISM DISORDERS BY INHIBITING FATTY ACID AMIDE HYDROLASE ACTIVITY” (N.V. Organon, priority 2006, published 2009).

Legend:
[1] = tested on: APOE*3-Leiden transgenic (E3L) mice; assay: Total plasma cholesterol in E3L mice; type: in vivo, mouse
Excerpt: (§1) We assessed the effect of inhibiting FAAH activity on body weight, body fat, triglyceride levels, cholesterol levels in APOE*3-Leiden transgenic (E3L) mice, an animal model of hyperlipidemia. […] See van Vlijmen et al. (1994), J. Clin Invest., 93:1403-1410. Indeed, upon high fat and cholesterol feeding, these mice develop various stages of atherosclerotic lesions depending on plasma total cholesterol levels and resembling those found in humans. See Groot et al. (1996), Arterioscler. Thromb. Vasc. Biol., 16:926-933; Versch ren et al. (2005), Arterioscler. Thromb. Vasc Biol., 25:161-167; and Lutgens et al. (1999), Circulation; 99(2):276-283). Thus, the E3L mouse is a suitable model for the investigation of the efficacy of anti-atherosclerotic drugs.
(§2) E3L mice were fed a high cholesterol (1% w/w) diet (HC diet) for a period of four weeks. Animals were then matched based on their plasma cholesterol levels, and were divided into five groups, each of which was maintained on an HC diet.
(§3) Blood samples were collected at days 0, 14, and 28 of the treatment period. At the end of the treatment period, animals were sacrificed, and various tissues and organs were analyzed. Unless otherwise indicated, values are mean±standard deviation (SD).

[2] = tested on: APOE*3-Leiden transgenic (E3L) mice; assay: Oil Red O staining of liver sections (steatosis) in E3L mice; type: in vivo, mouse; conditions: compared to the control vehicle group
Excerpt: as §2
In order to examine cellular stress in the liver due to lipid storage (steatosis), we stained frozen liver tissue sections with Oil Red O a fat-soluble diazo dye used to stain for lipids. Digital photomicrographs of liver cross sections were taken for each individual animal (magnification: 20 fold). […]

[3] = tested on: APOE*3-Leiden transgenic (E3L) mice; assay: Total plasma triglyceride levels in E3L mice; type: in vivo, mouse
Excerpt: as §1, §2, §3

[4] = tested on: APOE*3-Leiden transgenic (E3L) mice; assay: Organ and tissue weights in E3L mice on high cholesterol diet
Excerpt: as §1, §2, §3

[5] = tested on: APOE*3-Leiden transgenic (E3L) mice; assay: Plasma leptin ELISA in E3L mice; type: in vivo, mouse
Excerpt: as §2
Accordingly, we quantified plasma leptin levels after a four hour fasting period at treatment time points 0, 14, and 28 days using a mouse-specific leptin ELISA or (kit number MOB00 from R&D Systems, Minneapolis, Minn.) according to the guidelines and protocol specified by the manufacturer.

[6] = tested on: APOE*3-Leiden transgenic (E3L) mice; assay: Plasma adiponectin ELISA in E3L mice; type: in vivo, mouse
Excerpt: as §2
We determined plasma adiponectin levels after a four hour fasting period at 0, 14, 28 days, using a mouse-specific adiponectin/Acrp30 ELISA (kit number MRP300 from R&D Systems, Minneapolis, Minn.).

[7] = tested on: APOE*3-Leiden transgenic (E3L) mice; assay: Body weight in E3L mice on high cholesterol diet; type: in vivo, mouse
Excerpt: as §1, §2

[8] = tested on: APOE*3-Leiden transgenic (E3L) mice; assay: Plasma alanine aminotransferase (ALAT) activity in E3L mice; type: in vivo, mouse
Description: as §2
Levels of plasma alanine aminotransferase (ALAT) were determined on day 28 (table 7). Plasma ALAT is a measure of hepatic stress and increases in plasma ALAT levels are often associated with liver damage. […] Thus, a reduction in plasma ALAT levels is associated with improved liver function.

[9] = tested on: APOE*3-Leiden transgenic (E3L) mice; assay: Lipid content of liver (TLC) in E3L mice; type: in vivo, mouse
Excerpt: as §2
A reduction of Red Oil O staining in liver generally indicates reduced liver lipid content. We therefore quantified levels of lipids in livers from each animal, as described in Havekes et al. (1987), Biochem. J., 247:739-746; Delsing et al. (2005), J. Cardiovasc. Pharmacol., 45:53-60; and Post et al. (2004), ATVB, 24:768-774. Liver tissue homogenates were prepared. Lipids were extracted, dried under nitrogen, dissolved in chloroform, and spotted onto a channeled 20×20 cm silica gel thin layer chromatography (TLC) plate. Lipids were then separated, TLC plates were warmed up to visualize bands, and bands were quantified using an internal standard as reference.

cynomolgus monkeys = assay: Time course of plasma OEA levels after oral dosing in cynomolgus monkeys; type: in vivo, cynomolgus monkey; conditions: oral 50-1500 mg/kg
Description: Afterwards, a time course of plasma OEA levels was determined for each subject by obtaining a plasma sample at 0.5, 1, 2, 4, 8, 12, and 24 hours post-administration.

[10] = tested on: APOE*3-Leiden transgenic (E3L) mice; assay: Plasma lipoprotein profiles (size fractionation of pooled plasma) in E3L mice; type: in vivo, mouse; conditions: day 28, FIG. 1
Description: as §2
Lipoprotein profiles were determined in pooled plasma from day 28, as described in Verschuren et al. (2005), Arterioscler. Thromb. Vasc Biol., 25:161-167. An equal amount of plasma per animal was used to prepare a plasma pool for each group. Plasma lipoproteins in each plasma pool were separated by size fractionation. Typically, VLDL, IDL/LDL and HDL lipoproteins are eluted in fractions 4-8, fractions 11-16 and fractions 17-20, respectively.

[11] = tested on: APOE*3-Leiden transgenic (E3L) mice; assay: Plasma ketone body (D-3-hydroxybutyrate) levels in E3L mice; type: in vivo, mouse
Excerpt: as §2
We quantified plasma D-3-hydroxybutyrate (b-HBA; ketone bodies) levels were quantified in plasma samples obtained after a 4-hour fasting period at time points t=0, t=2, and t=4 weeks using kits #2940 (b-HBA reagent set) and #2947 (b-HBA control set)) according to the guidelines and protocol specified by the manufacturer (Instruchemie, Delfzijl, The Netherlands).

[12] = tested on: APOE*3-Leiden transgenic (E3L) mice; assay: Food intake per animal per day in E3L mice; type: in vivo, mouse
Excerpt: as §1, §2

[13] = E3L mice, HC diet, end of four-week treatment, mean ± SD

## NC(=O)c1cccc(-c2cccc(OC(=O)NC3CCCCC3)c2)c1 [KDS-4103]
[1]; day 0
  Total Plasma Cholesterol: 14.3 ± 3.2 mM
[1]; day 14
  Total Plasma Cholesterol: ^#19.1 ± 4.9 mM
[1]; day 28
  Total Plasma Cholesterol: ^#19.5 ± 4.1 mM
[1]; days 14 and 28, relative to respective control group
  total plasma cholesterol levels, in words: slightly and significantly increased
[2]
  steatotic (Oil Red O) staining in liver, in words: small, but not significant decrease
[3]; day 0
  Total Plasma Triglyceride Levels: 1.5 ± 0.4 mM
[3]; day 14
  Total Plasma Triglyceride Levels: 1.9 ± 0.6 mM
[3]; day 28
  Total Plasma Triglyceride Levels: 1.9 ± 0.5 mM
[3]; relative to respective control group
  total plasma triglyceride levels, in words: not significantly changed
[4]; [13]
  Organ and Tissue Weights: Brain: ^#0.46 ± 0.02^ g
  Organ and Tissue Weights: Fat (gonadal fat): *0.22 ± 0.04 g
  Organ and Tissue Weights: Heart: 0.14 ± 0.02 g
  Organ and Tissue Weights: Liver: 1.03 ± 0.14 g
  Organ and Tissue Weights: Lung: 0.18 ± 0.01 g
[4]; end of treatment
  brain weight, in words: slight, but significant increase
  heart, liver, or lung weights, in words: No significant changes
[4]; relative to the oral vehicle group
  gonadal fat weight, in words: significantly lower
[5]; day 0, four hour fasting
  Plasma Leptin Levels: ^#3.9 ± 1.5 ng/ml
[5]; day 14, four hour fasting
  Plasma Leptin Levels: ^#4.5 ± 2.1 ng/ml
[5]; day 28, four hour fasting
  Plasma Leptin Levels: ^#5.1 ± 2.3 ng/ml
[5]; relative to the oral vehicle control group
  plasma leptin levels, in words: significantly decreased
[6]; day 0, four hour fasting
  Plasma Adiponectin Levels: 10.4 ± 1.9 µg/mL
[6]; day 14, four hour fasting
  Plasma Adiponectin Levels: 10.2 ± 2.7 µg/mL
[6]; day 28, four hour fasting
  Plasma Adiponectin Levels: ^#11.9 ± 1.9^ mg/ml
[6]; day 28 as compared to day 0
  plasma adiponectin level, in words: significantly higher
[7]; last time point (4 weeks), within group
  body weights, in words: significantly reduced
[7]; week 0
  Body Weight: 21.8 ± 1.1 g
[7]; week 0.5
  Body Weight: 21.9 ± 1.0 g
[7]; week 1
  Body Weight: 21.9 ± 1.0 g
[7]; week 1.5
  Body Weight: *21.3 ± 0.9 g
[7]; week 2
  Body Weight: *21.4 ± 0.9 g
[7]; week 2.5
  Body Weight: *21.4 ± 0.9 g
[7]; week 3
  Body Weight: *21.3 ± 0.9 g
[7]; week 3.5
  Body Weight: 21.5 ± 0.9 g
[7]; week 4
  Body Weight: *21.5 ± 1.0 g
[8]; day 28
  Plasma Alanine Amino Transferase Activity: *94.0 ± 22.1 U/L
[8]; day 28, compared to respective control group
  plasma ALAT levels, in words: significantly decreased
[9]; compared to respective control group
  liver triglycerides (TG), in words: significantly decreased
[9]; compared to the oral vehicle group
  liver cholesterol esters (CE), in words: significantly increased
[9]; end of four-week treatment
  Lipid Content of Liver: Cholesterol Esters: ^#59 ± 6
  Lipid Content of Liver: Free Cholesterol: 22 ± 2
  Lipid Content of Liver: Triglycerides: *64 ± 14
Cynomolgus monkeys; FIG. 2
  time of peak plasma OEA levels: four
Cynomolgus monkeys; all time points after the peak (up to 24 hours)
  plasma OEA levels, in words: remained elevated
Cynomolgus monkeys; two hours after administration, FIG. 2
  plasma OEA levels, in words: clearly elevated
[10]
  IDL/LDL particle size, in words: slight shift toward larger IDL/LDL particles
  VLDL fraction of plasma lipoprotein profile, in words: increase
[11]; at 28 days, compared to the oral vehicle control group
  plasma HB levels, in words: significantly lower
[11]; day 0, 4-hour fasting
  Plasma Ketone Body (HB) levels: 0.73 ± 0.24 mM
[11]; day 14, 4-hour fasting
  Plasma Ketone Body (HB) levels: 0.32 ± 0.11 mM
[11]; day 28, 4-hour fasting
  Plasma Ketone Body (HB) levels: ^#0.43 ± 0.11^ mM
[12]; interval 0-0.5 weeks
  Food Intake Per Animal Per Day: 2.3 ± 0.1 g
[12]; interval 0.5-1.0 weeks
  Food Intake Per Animal Per Day: 2.4 ± 0.1 g
[12]; interval 1.0-1.5 weeks
  Food Intake Per Animal Per Day: 2.3 ± 0.2 g
[12]; interval 1.5-2.0 weeks
  Food Intake Per Animal Per Day: 2.6 ± 0.1 g
[12]; interval 2.0-2.5 weeks
  Food Intake Per Animal Per Day: 2.3 ± 0.3 g
[12]; interval 2.5-3.0 weeks
  Food Intake Per Animal Per Day: 2.5 ± 0.1 g
[12]; interval 3.0-3.5 weeks
  Food Intake Per Animal Per Day: 2.4 ± 0.3 g
[12]; interval 3.5-4.0 weeks
  Food Intake Per Animal Per Day: *2.0 ± 0.1 g
[12]; interval run-in
  Food Intake Per Animal Per Day: 2.5 ± 0.5 g
[12]; last time point
  food intake, in words: slight, but significant, decrease
